Measurements from US20180325889A1, “IMMUNOREGULATORY AGENTS” (FLEXUS BIOSCIENCES, INC., priority 2014, published 2018).

Target: T1, human IDO1/HEK293 cells (Homo sapiens, UniProt P14902)
T1 construct: expressed in transfected cells
Assay: HEK Human IDO-1 cell-based IDO inhibition assay (kynurenine production)
Details: HEK293 cells stably expressing human IDO1, 20 hours incubation, absorbance at 490 nm; read-out: HEK Human IDO-1 Bio Activity (IDO IC50)
Procedure: They were cultured in medium (DMEM with 10% FBS) containing 1 mg/ml G418 for two weeks.
The human IDO1/HEK293 cells were seeded at 10,000 cells per 50 μL per well with RPMI/phenol red free media contains 10% FBS in a 384-well black wall clear bottom tissue culture plate (Matrix Technologies LLC) 100 nL of certain concentration of compound was then added to each well using ECHO liquid handling systems. The cells were incubated for 20 hours in 37° C. incubator with 5% CO2.
The compound treatments were stopped by adding trichloroacetic acid (Sigma-Aldrich) to a final concentration at 0.2%. The cell plate was further incubated at 50° C. for 30 minute. The equal volume supernatant (20 μL) and 0.2% (w/v) Ehrlich reagent (4-dimethylaminobenzaldehyde, Sigma-Aldrich) in glacial acetic acid were mixed in a new clear bottom 384-well plate. This plate was then incubated at room temperature for 30 minute. The absorbance at 490 nm was measured on Envision plate reader.

T1 sequence (P14902 whole entry): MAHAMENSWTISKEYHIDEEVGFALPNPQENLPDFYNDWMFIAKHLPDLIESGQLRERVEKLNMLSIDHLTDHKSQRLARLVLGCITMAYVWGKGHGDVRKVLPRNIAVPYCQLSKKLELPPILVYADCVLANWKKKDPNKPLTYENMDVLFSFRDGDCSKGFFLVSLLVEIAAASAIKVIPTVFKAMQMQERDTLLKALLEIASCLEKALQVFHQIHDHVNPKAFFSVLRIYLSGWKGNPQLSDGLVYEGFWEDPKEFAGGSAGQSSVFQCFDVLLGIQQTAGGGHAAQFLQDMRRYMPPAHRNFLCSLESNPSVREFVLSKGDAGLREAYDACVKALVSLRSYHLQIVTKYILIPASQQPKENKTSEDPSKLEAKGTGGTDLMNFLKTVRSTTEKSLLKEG

Compound | IC50
CCC(NC(=O)c1ccc(Cl)cc1)[C@H]1CC[C@@H](c2ccnc3ccc(C(F)(F)F)cc32)CC1 (stereo partly drawn) [Example 254, 4-chloro-N-(1-((1s, 4s)-4-(6-(trifluoromethyl)quinolin-4-yl)cyclohexyl)propyl)benzamide] | < 50 nM
O=C(Nc1ccc(F)cc1F)N[C@H]1CC[C@H](c2ccnc3ccc(F)cc32)CC1 [Example 122, 1-(2,4-difluorophenyl)-3-(trans-4-(6-fluoroquinolin-4-yl)cyclohexyl)urea] | < 250 nM
O=C(Cc1ccc(Cl)cc1)N[C@H]1CC[C@H](c2ccnc3ccc(F)cc32)CC1 [Example 144, 2-(4-Chlorophenyl)-N-(trans-4-(6-fluoroquinolin-4-yl)cyclohexyl)acetamide] | < 2000 nM
C[C@@H](NC(=O)c1ccc(C2CC2)cc1)[C@H]1CC[C@@H](c2ccnc3ccc(F)cc32)CC1 [Example 247, 4-cyclopropyl-N-((R)-1-((1s,4S)-4-(6-fluoroquinolin-4-yl)cyclohexyl)ethyl)benzamide] | < 50 nM
Cc1ccc(NC(=O)NC2CCN(c3ccnc4ccc(F)cc34)CC2)cc1 [Example 91, 1-(1-(6-Fluoroquinolin-4-yl)piperidin-4-yl)-3-(p-tolyl)urea] | < 250 nM
CC(C(=O)N[C@H]1CC[C@H](c2ccnc3ccc(F)cc32)CC1)c1ccc(Cl)cc1 (stereo partly drawn) [Example 145, 2-(4-chlorophenyl)-N-(trans-4-(6-fluoroquinolin-4-yl)cyclohexyl)propanamide] | < 2000 nM
Cc1nccc(C2CCC(C(C)NC(=O)c3ccc(Cl)cc3)CC2)c1C (stereo not drawn) [Example 159a, 4-chloro-N-(1-(4-(2,3-dimcthylpyridin-4-yl)cyclohexyl)ethyl)benzamide] | < 50 nM
CCC(NC(=O)c1ccc(-c2ccccc2)cc1)C1CCC(c2ccnc3ccc(F)cc23)CC1 (stereo not drawn) [Example 258, N-(1-(4-(6-fluoroquinolin-4-yl)cyclohexyl)propyl)bi-phenyl-4-carboxamide] | < 50 nM
O=C(Nc1ccc(Cl)cc1)[C@H]1CC[C@@H](c2ccnc3ccc(F)cc32)CC1 [Example 76, (cis)-N-(4-Chlorophenyl)-4-(6-fluoroquinolin-4-yl)cyclohexanecarboxamide] | < 2000 nM
C[C@@H](NS(=O)(=O)c1ccc(Cl)cc1)[C@H]1CC[C@@H](c2ccnc3ccc(F)cc32)CC1 [Example 43, 4-chloro-N-((R)-1-((1s,4S)-4-(6-fluoroquinolin-4-yl)cyclohcxyl)ethyl)benzenesulfonamide] | < 2000 nM
C[C@@H](NC(=O)c1ccc(-c2ccc(S(C)(=O)=O)nc2)cc1)[C@H]1CC[C@@H](c2ccnc3ccc(F)cc32)CC1 [Example 237, N-((R)-1-((1s,4S)-4-(6-fluoroquinolin-4-yl)cyclohexyl)ethyl)-4-(6-(methylsulfonyl)pyridin-3-yl)benzamide] | < 2000 nM
CCC(NC(=O)c1ccc(OC)nc1)[C@H]1CC[C@@H](c2ccnc3ccc(C(F)(F)F)cc32)CC1 (stereo partly drawn) [Example 256, 6-methoxy-N-(1-((1s, 4S)-4-(6-(trifluoromethyl)quinolin-4-yl)cyclohexyl)propyl)nicotinamide] | < 50 nM
C=CC[C@@H](NC(=O)c1ccc(-c2ccccc2)cc1)[C@H]1CC[C@@H](c2ccnc3ccc(F)cc32)CC1 [Example 199, N—((R)-1-((is, 4S)-4-(6-fluoroquinolin-4-yl)cyclohexyl)but-3-en-1-yl)-[1,1′-biphenyl]-4-carboxamide] | < 2000 nM
CCC(NC(=O)c1ccc(Cl)cc1)C1CCC(c2ccnc3ccc(F)cc23)CC1 (single isomer, unassigned) [Example 164c, 4-Chloro-N-(1-(4-(6-fluoroquinolin-4-yl)cyclohexyl)propyl)benzamide] | < 50 nM
COc1ccc(-c2ccc(C(=O)N[C@H](C)[C@H]3CC[C@@H](c4ccnc5ccc(F)cc54)CC3)nc2)cc1F [Example 178, 5-(3-fluoro-4-methoxyphenyl)-N-((R)-1-(cis-4-(6-fluoroquinolin-4-yl)cyclohexyl)ethyl)picolinamide] | < 250 nM
